Reference: ChEMBL document CHEMBL1152175, “Synthesis, tubulin assembly, and antiproliferative activity against MCF7 and NCI/ADR-RES cancer cells of 10-O-acetyl-5'-hydroxybutitaxel” (2008)

Columns and labels:
MCF7 = assay: Cytotoxicity against human MCF7 cells; format: functional; details: read-out: ED50 (the source's name)
[1] = Inhibition of tubulin assembly
NCI/ADR-RES = assay: Cytotoxicity against human NCI/ADR-RES cells; format: functional; details: read-out: ED50 (the source's name)

Row | ED50 [1] | SMILES | EC50 (MCF7) | EC50 (NCI/ADR-RES)
1 | 2200 nM | CC(=O)O[C@H]1C(=O)[C@@]2(C)[C@H]([C@H](OC(=O)c3ccccc3)[C@]3(O)C[C@H](OC(=O)[C@H](O)[C@@H](NC(=O)OC(C)(C)C)C(C)(C)CO)C(C)=C1C3(C)C)[C@]1(OC(C)=O)CO[C@@H]1C[C@@H]2O | 560 nM | 12500 nM
2 | 1200 nM | CC(=O)O[C@H]1C(=O)[C@@]2(C)[C@H]([C@H](OC(=O)c3ccccc3)[C@]3(O)C[C@H](OC(=O)[C@H](O)[C@@H](NC(=O)c4ccccc4)c4ccccc4)C(C)=C1C3(C)C)[C@]1(OC(C)=O)CO[C@@H]1C[C@@H]2O [PACLITAXEL] | 2.1 nM | 2000 nM
